Test results taken from patent publication US20260085315A1, “POLYNUCLEOTIDE COMPOSITIONS AND METHODS FOR TREATMENT OF CANCER” (APTAH BIO, INC., priority 2023, published 2026).
“And” between values parts separate entries of the source, which are not always exact repeats. Equal values may be shown once. “Also recorded” adds a separate entry of the source. d = 2'-deoxy (DNA); m = 2'-O-methyl

Legend:
[1] = test system: neuroblastoma cell line SH-SY5Y; test: Kinetics of internalization; type: cell-based, Human; settings: all evaluated times
[2] = test system: PC-3 cell line; test: MTT cytotoxicity assay on human cancer cell panel (Example 2); type: cell-based; settings: 24, 48, 72 hours; 0.03-30 μM; 1% FBS
Procedure: Cell lines were maintained in growth medium with 10% of Fetal Bovine Serum (FBS) until the time of the experiments. Cells were sub-cultured by trypsinization and splitting the cell suspension into fresh flasks and supplementing with fresh culture medium. To perform the assay, the cells were trypsinized, neutralized with complete medium (10% FBS), centrifuged, counted with assistance of a hemocytometer, and plated with the respective media with 10% FBS. Cell lines were plated at a density of 1×10^4 cells per well, other than the SH-SY5Y cell line which was plated at a density of 2.5×10^4. The preparation of the different experimental groups was done with 0.1% FBS (U87MG, MCF-7, SH-SY5Y and 786-O) and 1% FBS (PC-3). The untreated cells were used as negative control (medium only). After 24, 48, 72 and 96 hours of incubation, the effect of ASMO1 and controls on cytotoxicity of cells was determined by MTT assay.
Briefly, plates were taken out and 20 μl of 5 mg/ml of MTT 3-(4,5-dimethythiazol-2-yl)-2,5-diphenyl tetrazolium bromide solution was added to all the wells. […] The absorbance of each well was then read at 540 nm using Synergy HT microplate reader.
Cells were plated and treated with 7 different concentrations (0.03, 0.1, 0.3, 1, 3, 10 and 30 μM) of APT20TTMG with medium (1% FBS). MTT assay was performed in 3 distinct times and graphs are represented as absorbance (540 nm). […]

[3] = test system: SH-SY5Y cell line; test: Distribution of cell cycle phases; type: cell-based, Human; settings: any concentration evaluated
[4] = test system: MCF-7 cell line; test: MTT cell viability assay (Example 3); type: cell-based, Human; settings: 48 hours, 2% FBS
Procedure: MTT assay was carried out to assess the cell viability of MCF-7 cell line after treatment with ASMO APT20TTMG, and, therefore, infer the ASMO1 cytotoxicity. The tetrazolium salt reduction (MTT) method evaluates cell viability by assessing mitochondrial integrity. Viable cells are able to reduce MTT reagent, which is yellow and water-soluble, into an insoluble purple formazan product. Formazan quantification could be measured by a spectrophotometer absorbance at 560 nm. The quantity of formazan is directly proportional to the number of viable cells in the culture.
For this assay, MCF-7 cells were plated in 96-well plates at a density of 1×10^4 cells/well and cultured for 24 hours for adhesion and, subsequently incubated with eight concentrations (0.0078-1 μM) of APT20TTMG (prepared in medium with 2% FBS) for the period of 48 hours. Then, cells were washed with 150 μL/well of PBS and incubated with 100 μL/well of MTT solution prepared in culture medium, at a concentration of 0.5 mg/mL for 3 hours in the incubator. […] Finally, the absorbance of the samples was measured in a plate reader spectrophotometer (Multiskan Spectrum, Thermo Scientific, Waltham, MA, USA), at a wavelength of 560 nm. The absorbance of each sample was used to determine the cell viability after each treatment condition.

[5] = test system: MCF-7 cell line; test: Cell cycle assay (propidium iodide, flow cytometry); type: cell-based, Human; settings: 0.25 and 0.5 μM; 48 hours; only statistically significant alteration
Procedure: Cell cycle assays were performed to understand how the ASMO APT20TTMG affects the cell cycle of MCF-7 cell line and its potential mechanisms of action. Initially, cells were plated in 12-well plates at a density of 5×10^4 cells/well and cultured for 24 hours for adhesion and then treated with three different concentrations of APT20TTMG (0.25, 0.5 and 1.0 μM) for 48 hours. After, cells were collected using a solution of trypsin/EDTA and washed with 2.0 mL of PBS buffer followed by centrifugation at 1500 rpm for 5 minutes. Then, the cells were fixed with ice-cold 70% ethanol and incubated overnight at 4° C. After that, cells were washed again with 2.0 mL of PBS and incubated with Propidium Iodide solution (50 μg/mL) and RNAse (200 μg/mL) for 1 hour at room temperature and protected from light. Finally, the cells were analyzed in a flow cytometer (BD FACSCanto II, BD Biosciences), through the acquisition of 10.000 gated events considering each sample.

[6] = test system: Human Glioblastoma Cancer (U-87MG) xenograft; test: Histopathology of tumor samples with scoring; type: in vivo, athymic nude mice; design: key to Score: Grade: 1: I; 2: II; 3: III; 4: IV; key to Score: Connective tissue stroma: 1: Minimal Fibrosis; 2: Mild Fibrosis; 3: Moderate Fibrosis; 4: Prominent; key to Score: N:C ratio: 3: High; 2: Low to High; 1: Low; key to Score: Apoptosis / Score: Lipid content: 4: Minimal; 3: Mild; 2: Moderate; 1: Prominent
Source text: The fixed tissues were processed for routine paraffin embedding followed by sectioning (3-6 micron). The sections were stained with hematoxylin and eosin. The prepared slides were examined under microscope by the study pathologist to record histopathological findings in tumor samples, related to capsule formation, cell type, connective tissue stroma, apoptosis, necrosis, lipid content, nucleus-to-cytoplasmic (N:C) ratio, nuclei mitotic figures, tumor grade, and level of differentiation. Each histopathological finding and tumor volume were assigned a score ranging from 1 to 4 (Table 7). The sum of these scores for each sample was used to infer the tumor aggressiveness.

[7] = individual animals, G3 APT20TTMG, G2 TMZ

Substance: APT20TTMG: engineered polynucleotide ASMO1, 24 nt, SEQ ID NO: 3 gtccactaacctttcaggccagcg; targeting moieties 5′-GTCCA-3′ and 5′-CG-3′, U1 snRNP recruiting moiety (GTCCACTAACCTTTCAGGCCAGCG; sugars from the 5' end m5 d14 m5, all phosphorothioate, methylation of C and T or U not given here)
- internalization [1]: around 50%
- cytotoxic or cytostatic effect (MTT) [2]: does not exert a cytotoxic or cytostatic effect
- cell cycle phases [3]: no change in cell cycle phases
- cell viability (MTT) ([4]; 0.5 μM): 86.4±1.6%
- cell viability (MTT) ([4]; 1 μM): 85±2.7%
- cells in S phase of cell cycle [5]: lower concentration of cells
- total score of histopathological findings and tumor volume ([6]; G3 20 mg/kg i.v. vs G1 vehicle): statistically lower scores than G1 group
- histopathological findings compared to G1 (vehicle control) ([6]; G3 APT20TTMG 20 mg/kg i.v., G2 TMZ 5 mg/kg p.o.): less anaplastic features (lower grade) and cellular atypia, with fewer mitotic figures
- Histopathological findings: Cell Type ([6]; individual animals): Cell Type - Irregular/spindle type cells; also recorded: Cell Type - Polymorphic (i.e., Moderately differentiated
- Histopathological findings (whole sample) ([6]; individual animals, G3): Only diffused necrotic area was observed.
- Score: Capsule ([6]; individual animals, G3): 1
- Histopathological findings: Capsule ([6]; individual animals, G3 APT20TTMG 20 mg/kg i.v. q3dx7, G2 TMZ 5 mg/kg p.o. qdx21): Capsule - Present; also recorded: Capsule - Absent
- Histopathological findings: Apoptosis [6, 7]: Apoptosis - Mild; also recorded: Apoptosis - Moderate
- Histopathological findings: Connective tissue stroma [6, 7]: Connective tissue stroma - Moderate Fibrosis; also recorded: Connective tissue stroma - Mild Fibrosis
- Histopathological findings: Grade [6, 7]: Grade- 2; also recorded: Grade- 1; also recorded: Grade- 3
- Histopathological findings: Lipid content [6, 7]: Lipid content - Moderate; also recorded: Lipid content - Minimal; also recorded: Lipid content - Mild
- Histopathological findings: Mitotic figures [6, 7]: Mitotic figures - Active (Few in number); also recorded: Mitotic figures - Active (Moderate in number); also recorded: Mitotic figures - Active (Large in number)
- Histopathological findings: N:C ratio [6, 7]: N:C ratio - Low to High (Intermediate)
- Histopathological findings: Necrosis [6, 7]: Necrosis - Prominent; also recorded: Necrosis - Moderate; also recorded: Necrosis - Mild
- Histopathological findings: Nuclei [6, 7]: Nuclei - Hyperchromatic
- Histopathological findings: level of differentiation [6, 7]: Moderately differentiated; also recorded: Well differentiated
- Score: Apoptosis [6, 7]: 3 (4×) and 2 (2×)
- Score: Connective tissue stroma [6, 7]: 3 (4×) and 2 (2×)
- Score: Grade [6, 7]: 2 (4×) and 1 and 3
- Score: Lipid content [6, 7]: 3 (3×) and 1 and 2 (2×)
- Score: N:C ratio [6, 7]: 1 (3×) and 2 (2×) and 3
- Score: Volume Tumor [6, 7]: 1 (<500) (2×) and 2 (500-1000) (3×) and 3 (1000-1500)
